Literature values, collected in US8680055B2, “Methods for decreasing steroidogenesis in prostate cancer cells” (University of Southern California, priority 2009, dated 2014).

Tests used:
[1] = test system: PCa resistant to multiple hormonal therapies; conditions: chemotherapy-naive men
[2] = test system: advanced CRPC; conditions: phase II trials

CC(=O)O[C@H]1CC[C@@]2(C)C(=CC[C@@H]3[C@@H]2CC[C@]2(C)C(c4cccnc4)=CC[C@@H]32)C1 [abiraterone acetate]
patients with declines in PSA ≧90% ([1]; 6 patients): 29% | patients with declines in PSA ≧50% ([1]; 12 patients): 57% | patients with declines in PSA ≧30% ([1]; 14 patients): 66%

CC(=O)N1CCN(c2ccc(OCC3COC(Cn4ccnc4)(c4ccc(Cl)cc4Cl)O3)cc2)CC1 (centres unmarked) [ketoconazole]
median duration of response [2]: up to 7 months | response rate by PSA working group (PSAWG) criteria [2]: 40-62%
